Key:
[1] = tested on: HT29; test: NCI DTP cell line screen (SRB), Colon Cancer; format: cell-based
[2] = tested on: NCI/ADR-RES; test: NCI DTP cell line screen (SRB), Breast Cancer; format: cell-based
Procedure: (§1) Screening of compounds 70 and 71 against several cancer cell lines The human tumor cell lines of the cancer screening panel are grown in RPMI 1640 medium containing 5% fetal bovine serum and 2 mM L-glutamine. For a typical screening experiment, cells are inoculated into 96 well microtiter plates in 100 μL at plating densities ranging from 5,000 to 40,000 cells/well depending on the doubling time of individual cell lines. After cell inoculation, the microtiter plates are incubated at 37° C., 5% CO2, 95% air and 100% relative humidity for 24 h prior to addition of experimental drugs.
(§2) After 24 h, two plates of each cell line are fixed in situ with TCA, to represent a measurement of the cell population for each cell line at the time of drug addition (Tz). Experimental drugs are solubilized in dimethyl sulfoxide at 400-fold the desired final maximum test concentration and stored frozen prior to use. At the time of drug addition, an aliquot of frozen concentrate is thawed and diluted to twice the desired final maximum test concentration with complete medium containing 50 μg/ml gentamicin. Additional four, 10-fold or ½ log serial dilutions are made to provide a total of five drug concentrations plus control. Aliquots of 100 μl of these different drug dilutions are added to the appropriate microtiter wells already containing 100 μl of medium, resulting in the required final drug concentrations.
(§3) Following drug addition, the plates are incubated for an additional 48 h at 37° C., 5% CO2, 95% air, and 100% relative humidity. For adherent cells, the assay is terminated by the addition of cold TCA. Cells are fixed in situ by the gentle addition of 50 μl of cold 50% (w/v) TCA (final concentration, 10% TCA) and incubated for 60 minutes at 4° C. The supernatant is discarded, and the plates are washed five times with tap water and air dried. Sulforhodamine B (SRB) solution (100 μl) at 0.4% (w/v) in 1% acetic acid is added to each well, and plates are incubated for 10 minutes at room temperature. After staining, unbound dye is removed by washing five times with 1% acetic acid and the plates are air dried. Bound stain is subsequently solubilized with 10 mM trizma base, and the absorbance is read on an automated plate reader at a wavelength of 515 nm. For suspension cells, the methodology is the same except that the assay is terminated by fixing settled cells at the bottom of the wells by gently adding 50 μl of 80% TCA (final concentration, 16% TCA). Using the seven absorbance measurements [time zero, (Tz), control growth, (C), and test growth in the presence of drug at the five concentration levels (Ti)], the percentage growth is calculated at each of the drug concentrations levels. Percentage growth inhibition is calculated as: [(Ti−Tz)/(C−Tz)]×100 for concentrations for which Ti>/=Tz [(Ti−Tz)/Tz]×100 for concentrations for which Ti<Tz
(§4) Three dose response parameters are calculated for each experimental agent. […] The drug concentration resulting in total growth inhibition (TGI) is calculated from Ti=Tz. […] Values are calculated for each of these three parameters if the level of activity is reached; however, if the effect is not reached or is exceeded, the value for that parameter is expressed as greater or less than the maximum or minimum concentration tested.
(§5) The methods described were used to test compounds 70 and 71 on a panel of sixty cell lines under a screening service provided by the Developmental Therapeutics Program at the National Institutes of Health. Shown in FIG. 1C are 1, RPMI-8226 leukemia cells; 2; NCI-H322M non-small cell lung cancer cells; 3, HT29 colon cancer cells; 4, U251 CNS cancer cells; 5, SK-MEL-28 melanoma cancer cells; 6, SK-OV-3 ovarian cancer cells; 7, RXF 393 renal cancer cells; 8, PC-3 prostate cancer cells; 9, MDA-MB-231 breast cancer cells.

[3] = tested on: HCT-15; test: NCI DTP cell line screen (SRB), Colon Cancer; format: cell-based
[4] = tested on: KM12; test: NCI DTP cell line screen (SRB), Colon Cancer; format: cell-based
Procedure: as §1, §2, §3, §4, §5

[5] = tested on: HCT-116; test: NCI DTP cell line screen (SRB), Colon Cancer; format: cell-based
Procedure: as §1, §2, §3, §4, §5

[6] = tested on: SW-620; test: NCI DTP cell line screen (SRB), Colon Cancer; format: cell-based
Procedure: as §1, §2, §3, §4, §5

[7] = tested on: phospho-473Ser Akt; test: Western blot of Akt and phospho-Akt in PC-3 cells; format: cell-based, human; details: 1 μM
Procedure: Immunoblotting. The general procedure for the Western blot analysis of Akt and phospho-Akt is described as follows. Cells were washed in PBS, resuspended in SDS sample buffer sonicated by an ultrasonic sonicator for 5 sec, and boiled for 5 min. After brief centrifugation, equivalent protein concentrations from the soluble fractions were resolved in 10% SDS-polyacrylamide gels on a Minigel apparatus, and transferred to a nitrocellulose membrane using a semi-dry transfer cell. The transblotted membrane was washed three times with TBS containing 0.05% Tween 20 (TBST). After blocking with TBST containing 5% nonfat milk for 60 min., the membrane was incubated with the primary antibody at 1:1,000 dilution in TBST-5% low fat milk at 4° C. for 12 h, and was then washed three times with TBST. The membrane was probed with goat anti-rabbit IgG-HRP conjugates (1:1,000) for 1 h at room temperature, and was washed with TBST three times. The immunoblots were visualized by enhanced chemiluminescence.

[8] = read-out: LC50 (the source's name)

In the case of `N=C(N)Nc1ccc(-n2nc(C(F)(F)F)cc2-c2ccc3c(ccc4ccccc43)c2)cc1` [Compound 71, 4-[5-(2-Phenanthrenyl)-3-(trifluoromethyl)-1H-pyrazol-1-yl]-phenyl-guanidine], the GI50 [1] is reported as 1500 nM, the TGI [1] is reported as 2.83E−06 and the “Mean Optical Densities” value ([1]; Log10 Concentration −4.0) is reported as 0.003. The “Percent Growth” value ([1]; Log10 Concentration −4.0) was −99%, the “Mean Optical Densities” value ([1]; Log10 Concentration −5.0) was −0.054 and the “Percent Growth” value ([1]; Log10 Concentration −5.0) was −100%. The “Mean Optical Densities” value ([1]; Log10 Concentration −6.0) was 1.136, the “Percent Growth” value ([1]; Log10 Concentration −6.0) was 82% and the “Mean Optical Densities” value ([1]; Log10 Concentration −7.0) was 1.238. The “Percent Growth” value ([1]; Log10 Concentration −7.0) was 91%, the “Mean Optical Densities” value ([1]; Log10 Concentration −8.0) was 1.276 and the “Percent Growth” value ([1]; Log10 Concentration −8.0) was 95%. For the same molecule, the CC50 [1, 8] was 5320 nM, the GI50 [2] was 2640 nM and the TGI [2] was 7.73E−06. For the same molecule, the “Mean Optical Densities” value ([2]; Log10 Concentration −4.0) was 0.294, the “Percent Growth” value ([2]; Log10 Concentration −4.0) was −47% and the “Mean Optical Densities” value ([2]; Log10 Concentration −5.0) was 0.490. The “Percent Growth” value ([2]; Log10 Concentration −5.0) was −12%, the “Mean Optical Densities” value ([2]; Log10 Concentration −6.0) was 1.874 and the “Percent Growth” value ([2]; Log10 Concentration −6.0) was 95%. The “Mean Optical Densities” value ([2]; Log10 Concentration −7.0) was 1.882, the “Percent Growth” value ([2]; Log10 Concentration −7.0) was 96% and the “Mean Optical Densities” value ([2]; Log10 Concentration −8.0) was 1.920. The “Percent Growth” value ([2]; Log10 Concentration −8.0) was 98%, the CC50 [2, 8] was over 100000 nM and the GI50 [3] was 1540 nM. The TGI [3] was 2.87E−06, the “Mean Optical Densities” value ([3]; Log10 Concentration −4.0) was 0.082 and the “Percent Growth” value ([3]; Log10 Concentration −4.0) was −71%. For the same molecule, the “Mean Optical Densities” value ([3]; Log10 Concentration −5.0) was −0.003, the “Percent Growth” value ([3]; Log10 Concentration −5.0) was −100% and the “Mean Optical Densities” value ([3]; Log10 Concentration −6.0) was 0.797. For the same molecule, the “Percent Growth” value ([3]; Log10 Concentration −6.0) was 84%, the “Mean Optical Densities” value ([3]; Log10 Concentration −7.0) was 0.779 and the “Percent Growth” value ([3]; Log10 Concentration −7.0) was 81%. For the same molecule, the “Mean Optical Densities” value ([3]; Log10 Concentration −8.0) was 0.669, the “Percent Growth” value ([3]; Log10 Concentration −8.0) was 64% and the CC50 [3, 8] was 5360 nM. For the same molecule, the GI50 [4] was 1590 nM, the TGI [4] was 2.97E−06 and the “Mean Optical Densities” value ([4]; Log10 Concentration −4.0) was 0.307. The “Percent Growth” value ([4]; Log10 Concentration −4.0) was −43%, the “Mean Optical Densities” value ([4]; Log10 Concentration −5.0) was 0.013 and the “Percent Growth” value ([4]; Log10 Concentration −5.0) was −98%. For the same molecule, the “Mean Optical Densities” value ([4]; Log10 Concentration −6.0) was 1.777, the “Percent Growth” value ([4]; Log10 Concentration −6.0) was 87% and the “Mean Optical Densities” value ([4]; Log10 Concentration −7.0) was 1.832. For the same molecule, the “Percent Growth” value ([4]; Log10 Concentration −7.0) was 91%, the “Mean Optical Densities” value ([4]; Log10 Concentration −8.0) was 1.867 and the “Percent Growth” value ([4]; Log10 Concentration −8.0) was 94%. The GI50 [5] was 1290 nM, the TGI [5] was 2.55E−06 and the “Mean Optical Densities” value ([5]; Log10 Concentration −4.0) was 0.058. For the same molecule, the “Percent Growth” value ([5]; Log10 Concentration −4.0) was −49%, the “Mean Optical Densities” value ([5]; Log10 Concentration −5.0) was −0.022 and the “Percent Growth” value ([5]; Log10 Concentration −5.0) was −100%. The “Mean Optical Densities” value ([5]; Log10 Concentration −6.0) was 0.525, the “Percent Growth” value ([5]; Log10 Concentration −6.0) was 68% and the “Mean Optical Densities” value ([5]; Log10 Concentration −7.0) was 0.633. The “Percent Growth” value ([5]; Log10 Concentration −7.0) was 86%, the “Mean Optical Densities” value ([5]; Log10 Concentration −8.0) was 0.607 and the “Percent Growth” value ([5]; Log10 Concentration −8.0) was 82%. For the same molecule, the GI50 [6] was 1750 nM, the TGI [6] was 3.13E−06 and the “Mean Optical Densities” value ([6]; Log10 Concentration −4.0) was 0.015. The “Percent Growth” value ([6]; Log10 Concentration −4.0) was −92%, the “Mean Optical Densities” value ([6]; Log10 Concentration −5.0) was −0.048 and the “Percent Growth” value ([6]; Log10 Concentration −5.0) was −100%. For the same molecule, the “Mean Optical Densities” value ([6]; Log10 Concentration −6.0) was 1.060, the “Percent Growth” value ([6]; Log10 Concentration −6.0) was 98% and the “Mean Optical Densities” value ([6]; Log10 Concentration −7.0) was 0.993. The “Percent Growth” value ([6]; Log10 Concentration −7.0) was 91%, the “Mean Optical Densities” value ([6]; Log10 Concentration −8.0) was 0.923 and the “Percent Growth” value ([6]; Log10 Concentration −8.0) was 83%. The phospho-Akt level [7] was “substantial decrease in the phospho-Akt level”.

Source: US8541460B2, “PDK-1/Akt signaling inhibitors” (The Ohio State University, priority 2003, dated 2013)
